Data as given in the CheMixHub viscosity set.

Experiment: xn = mol fraction of the nth substance listed

CC#N + CCCCO
viscosity [mPa·s]
Conditions | 298.15 K | 303.15 K | 308.15 K | 313.15 K | 318.15 K | 323.15 K
101 kPa, x1 = 0.055 | 2.123 | 1.695 | 1.365 | – | – | –
101 kPa, x1 = 0.0999 | – | 1.696 | 1.517 | 1.364 | 1.231 | 1.111
101 kPa, x1 = 0.1178 | 1.764 | 1.422 | 1.159 | – | – | –
101 kPa, x1 = 0.1952 | 1.449 | 1.186 | 0.978 | – | – | –
101 kPa, x1 = 0.2 | – | 1.322 | 1.197 | 1.085 | 0.986 | 0.9
101 kPa, x1 = 0.2302 | 1.322 | 1.086 | 0.899 | – | – | –
101 kPa, x1 = 0.2997 | – | 1.054 | 0.957 | 0.876 | 0.803 | 0.738
101 kPa, x1 = 0.3526 | 1.016 | 0.854 | 0.721 | – | – | –
101 kPa, x1 = 0.4 | – | 0.842 | 0.781 | 0.723 | 0.667 | 0.619
101 kPa, x1 = 0.4775 | 0.792 | 0.681 | 0.585 | – | – | –
101 kPa, x1 = 0.5 | – | 0.695 | 0.643 | 0.601 | 0.555 | 0.519
101 kPa, x1 = 0.5911 | 0.615 | 0.538 | 0.472 | – | – | –
101 kPa, x1 = 0.5998 | – | 0.574 | 0.536 | 0.502 | 0.47 | 0.442
101 kPa, x1 = 0.6999 | – | 0.482 | 0.453 | 0.427 | 0.402 | 0.381
101 kPa, x1 = 0.7026 | 0.504 | 0.445 | 0.397 | – | – | –
101 kPa, x1 = 0.7906 | 0.433 | 0.391 | 0.352 | – | – | –
101 kPa, x1 = 0.8 | – | 0.413 | 0.391 | 0.374 | 0.354 | 0.336
101 kPa, x1 = 0.9 | – | 0.362 | 0.345 | 0.329 | 0.315 | 0.301
101 kPa, x1 = 0.9094 | 0.383 | 0.348 | 0.32 | – | – | –
101.3 kPa, x1 = 0.1671 | 1.475 | 1.336 | 1.204 | – | – | –
101.3 kPa, x1 = 0.311 | 1.029 | 0.937 | 0.849 | – | – | –
101.3 kPa, x1 = 0.4362 | 0.77 | 0.706 | 0.65 | – | – | –
101.3 kPa, x1 = 0.5462 | 0.605 | 0.566 | 0.535 | – | – | –
101.3 kPa, x1 = 0.6436 | 0.484 | 0.457 | 0.431 | – | – | –
101.3 kPa, x1 = 0.7303 | 0.441 | 0.408 | 0.391 | – | – | –
101.3 kPa, x1 = 0.8082 | 0.403 | 0.381 | 0.361 | – | – | –
101.3 kPa, x1 = 0.8784 | 0.387 | 0.367 | – | – | – | –
101.3 kPa, x1 = 0.942 | 0.348 | 0.327 | – | – | – | –

CC#N + CC(C)O
Conditions | viscosity [mPa·s]
293.15 K, 101.32 kPa, x1 = 0.0526 | 1.921
293.15 K, 101.32 kPa, x1 = 0.0771 | 1.736
293.15 K, 101.32 kPa, x1 = 0.1018 | 1.572
293.15 K, 101.32 kPa, x1 = 0.2227 | 1.15
293.15 K, 101.32 kPa, x1 = 0.3314 | 0.8622
293.15 K, 101.32 kPa, x1 = 0.3989 | 0.7354
293.15 K, 101.32 kPa, x1 = 0.55 | 0.5657
293.15 K, 101.32 kPa, x1 = 0.625 | 0.502
293.15 K, 101.32 kPa, x1 = 0.6893 | 0.4639
293.15 K, 101.32 kPa, x1 = 0.7624 | 0.4194
293.15 K, 101.32 kPa, x1 = 0.864 | 0.3823
298.15 K, 101 kPa, x1 = 0.1056 | 1.372
298.15 K, 101 kPa, x1 = 0.1688 | 1.145
298.15 K, 101 kPa, x1 = 0.2531 | 0.923
298.15 K, 101 kPa, x1 = 0.4135 | 0.653
298.15 K, 101 kPa, x1 = 0.5014 | 0.556
298.15 K, 101 kPa, x1 = 0.6077 | 0.473
298.15 K, 101 kPa, x1 = 0.7093 | 0.424
298.15 K, 101 kPa, x1 = 0.8276 | 0.373
298.15 K, 101 kPa, x1 = 0.9013 | 0.356
298.15 K, 101.3 kPa, x1 = 0.1399 | 1.254
298.15 K, 101.3 kPa, x1 = 0.2679 | 0.846
298.15 K, 101.3 kPa, x1 = 0.3855 | 0.66
298.15 K, 101.3 kPa, x1 = 0.4939 | 0.541
298.15 K, 101.3 kPa, x1 = 0.5942 | 0.482
298.15 K, 101.3 kPa, x1 = 0.6871 | 0.419
298.15 K, 101.3 kPa, x1 = 0.7736 | 0.372
298.15 K, 101.3 kPa, x1 = 0.8541 | 0.343
298.15 K, 101.3 kPa, x1 = 0.9295 | 0.342
303.15 K, 101 kPa, x1 = 0.1056 | 1.088
303.15 K, 101 kPa, x1 = 0.1688 | 0.918
303.15 K, 101 kPa, x1 = 0.2531 | 0.762
303.15 K, 101 kPa, x1 = 0.4135 | 0.551
303.15 K, 101 kPa, x1 = 0.5014 | 0.482
303.15 K, 101 kPa, x1 = 0.6077 | 0.417
303.15 K, 101 kPa, x1 = 0.7093 | 0.382
303.15 K, 101 kPa, x1 = 0.8276 | 0.341
303.15 K, 101 kPa, x1 = 0.9013 | 0.327
303.15 K, 101.3 kPa, x1 = 0.1399 | 1.114
303.15 K, 101.3 kPa, x1 = 0.2679 | 0.758
303.15 K, 101.3 kPa, x1 = 0.3855 | 0.599
303.15 K, 101.3 kPa, x1 = 0.4939 | 0.502
303.15 K, 101.3 kPa, x1 = 0.5942 | 0.45
303.15 K, 101.3 kPa, x1 = 0.6871 | 0.394
303.15 K, 101.3 kPa, x1 = 0.7736 | 0.356
303.15 K, 101.3 kPa, x1 = 0.8541 | 0.327
303.15 K, 101.3 kPa, x1 = 0.9295 | 0.326
303.15 K, 101.32 kPa, x1 = 0.0526 | 1.464
303.15 K, 101.32 kPa, x1 = 0.0771 | 1.361
303.15 K, 101.32 kPa, x1 = 0.1018 | 1.239
303.15 K, 101.32 kPa, x1 = 0.2227 | 0.9168
303.15 K, 101.32 kPa, x1 = 0.3314 | 0.7097
303.15 K, 101.32 kPa, x1 = 0.3989 | 0.6154
303.15 K, 101.32 kPa, x1 = 0.55 | 0.4831
303.15 K, 101.32 kPa, x1 = 0.625 | 0.4366
303.15 K, 101.32 kPa, x1 = 0.6893 | 0.407
303.15 K, 101.32 kPa, x1 = 0.7624 | 0.378
303.15 K, 101.32 kPa, x1 = 0.864 | 0.344
308.15 K, 101 kPa, x1 = 0.1056 | 0.871
308.15 K, 101 kPa, x1 = 0.1688 | 0.739
308.15 K, 101 kPa, x1 = 0.2531 | 0.635
308.15 K, 101 kPa, x1 = 0.4135 | 0.475
308.15 K, 101 kPa, x1 = 0.5014 | 0.42
308.15 K, 101 kPa, x1 = 0.6077 | 0.372
308.15 K, 101 kPa, x1 = 0.7093 | 0.345
308.15 K, 101 kPa, x1 = 0.8276 | 0.312
308.15 K, 101 kPa, x1 = 0.9013 | 0.302
308.15 K, 101.3 kPa, x1 = 0.1399 | 0.995
308.15 K, 101.3 kPa, x1 = 0.2679 | 0.687
308.15 K, 101.3 kPa, x1 = 0.3855 | 0.546
308.15 K, 101.3 kPa, x1 = 0.4939 | 0.465
308.15 K, 101.3 kPa, x1 = 0.5942 | 0.417
308.15 K, 101.3 kPa, x1 = 0.6871 | 0.37
308.15 K, 101.3 kPa, x1 = 0.7736 | 0.331
308.15 K, 101.3 kPa, x1 = 0.8541 | 0.311
308.15 K, 101.3 kPa, x1 = 0.9295 | 0.309
313.15 K, 101.3 kPa, x1 = 0.1399 | 0.889
313.15 K, 101.3 kPa, x1 = 0.2679 | 0.623
313.15 K, 101.32 kPa, x1 = 0.0526 | 1.125
313.15 K, 101.32 kPa, x1 = 0.0771 | 1.047
313.15 K, 101.32 kPa, x1 = 0.1018 | 0.991
313.15 K, 101.32 kPa, x1 = 0.2227 | 0.7301
313.15 K, 101.32 kPa, x1 = 0.3314 | 0.5949
313.15 K, 101.32 kPa, x1 = 0.3989 | 0.5253
313.15 K, 101.32 kPa, x1 = 0.55 | 0.4201
313.15 K, 101.32 kPa, x1 = 0.625 | 0.3817
313.15 K, 101.32 kPa, x1 = 0.6893 | 0.361
313.15 K, 101.32 kPa, x1 = 0.7624 | 0.3321
313.15 K, 101.32 kPa, x1 = 0.864 | 0.3081
323.15 K, 101 kPa, x2 = 0.0989 | 0.289
323.15 K, 101 kPa, x2 = 0.1994 | 0.312
323.15 K, 101 kPa, x2 = 0.2943 | 0.34
323.15 K, 101 kPa, x2 = 0.3965 | 0.378
323.15 K, 101 kPa, x2 = 0.4864 | 0.427
323.15 K, 101 kPa, x2 = 0.6077 | 0.499
323.15 K, 101 kPa, x2 = 0.7049 | 0.58
323.15 K, 101 kPa, x2 = 0.8007 | 0.685
323.15 K, 101 kPa, x2 = 0.8971 | 0.815
323.15 K, 101.32 kPa, x1 = 0.0526 | 0.9024
323.15 K, 101.32 kPa, x1 = 0.0771 | 0.8427
323.15 K, 101.32 kPa, x1 = 0.1018 | 0.7839
323.15 K, 101.32 kPa, x1 = 0.2227 | 0.6091
323.15 K, 101.32 kPa, x1 = 0.3314 | 0.5031
323.15 K, 101.32 kPa, x1 = 0.3989 | 0.4466
323.15 K, 101.32 kPa, x1 = 0.55 | 0.3731
323.15 K, 101.32 kPa, x1 = 0.625 | 0.3434
323.15 K, 101.32 kPa, x1 = 0.6893 | 0.329
323.15 K, 101.32 kPa, x1 = 0.7624 | 0.3054
323.15 K, 101.32 kPa, x1 = 0.864 | 0.2835
